This passage reports IC50 and inhibition results from PubChem BioAssay AID588568 (The Scripps Research Institute Molecular Screening Center, 2011).

Activity calls are given as the source filed them. The rule behind the calls is not given here.

The target of the assay is Melanin-concentrating hormone receptor 1 (Homo sapiens) (UniProt Q99705). As to the kind of experiment: MCHR1 antagonists, dose response, counter-screen for GPR7 antagonist project, cell-based, fluorescence, set 4 (AID 588568). Conditions: MCHR1-expressing cells, fluorescence antagonist assay, run 1. (A counterscreen serves to expose hits that act by an unwanted route or on another target.)

Take `COc1ccc(Oc2c(Cl)cnn(Cc3ccc(OC(C)C)c(C#N)c3)c2=O)cc1`: the half-inhibitory concentration (IC50) (as a rule, the concentration at which inhibition is half-maximal) was 5.54 µM.

As to `COc1cccc(Oc2c(Cl)cnn(-c3cc(C)cc(C)c3)c2=O)c1`, the IC50 was > 20 µM (inactive). Still for that read-out and setting: then `Cc1cc(C)cc(-n2ncc(Cl)c(Oc3ccc(-c4ccccc4)cc3)c2=O)c1`, with 8.03 µM; and `CCCC(=O)OCC(c1cccc2ccccc12)n1ncc(Cl)c(Oc2ccc(OC)cc2)c1=O` (centres undefined), with > 20 µM (inactive); and `CCN(CC)C(=O)C(c1ccccc1Cl)n1ncc(Cl)c(Oc2ccc(OC)cc2)c1=O` (centres undefined), with > 11.5 µM (inactive).

For `CC(C)c1ccc(-n2ncc(Cl)c(Oc3ccc(O)cc3)c2=O)cc1`, the IC50 was > 20 µM (inactive). For `COc1ccc(Oc2c(Cl)c(Br)nn(Cc3ccccc3C)c2=O)cc1`, the concentration for half-maximal inhibition (IC50) is 1.79 µM.

Consider `COc1ccc(Oc2c(C#N)cnn(-c3ccc(Br)cc3)c2=O)cc1`, for which the IC50 result is “inactive”. Still for that read-out and setting: then `O=C(O)c1ccc(Oc2c(Cl)cnn(Cc3cccc4ccccc34)c2=O)cc1`, with > 20 µM (inactive). Still for that read-out and setting: for `COc1ccc(Oc2c(Cl)cnn(-c3ccc(OC)cc3)c2=O)cc1` the value was “inactive”; for `O=c1c(Oc2ccc(CO)cc2)c(Cl)cnn1Cc1ccc2ccccc2c1`, 2.23 µM; for `Cc1ccccc1Cn1ncc(Oc2ccc(CO)cc2)c(Cl)c1=O`, 6.54 µM. Take `COc1ccc(Oc2c(Cl)c(-c3ccc(C)cc3)nn(Cc3ccccc3C)c2=O)cc1`: the half-maximal inhibitory concentration (IC50) was 6.43 µM. In the case of `CCOC(=O)C(c1ccccc1Cl)n1ncc(Cl)c(Oc2ccc(OC)cc2)c1=O` (centres undefined), the 50% inhibitory concentration (IC50) was 3.26 µM. On the same count and under the same terms, for `CN(C)Cc1ccc(Oc2c(Cl)cnn(Cc3cccc4ccccc34)c2=O)cc1` the value was > 20 µM (inactive). Regarding `Cc1ccccc1Cn1ncc(Cl)c(Oc2ccc(CO)cc2)c1=O`, the IC50 is 4.92 µM. The same measure, in the same setting: then `COc1ccc(Oc2c(Cl)cnn(-c3ccc(Br)cc3)c2=O)cc1`, with 6.4 µM. Same read-out and setting: then `COc1ccc(Oc2c(Cl)c(C3=CCCCC3)nn(Cc3ccccc3C)c2=O)cc1`, with 3.57 µM. Same read-out and setting: then `COc1ccc(Oc2c(Cl)cnn(Cc3ccc(C(F)(F)F)cc3)c2=O)cc1`, with 1.78 µM; and `COc1ccc(Oc2c(Cl)cnn(C(c3ccccc3)c3ccccc3C)c2=O)cc1` (centres undefined), with “inactive”; and `COc1ccc(Oc2c(Cl)c(-c3ccsc3)nn(Cc3ccccc3C)c2=O)cc1`, with 8.04 µM.

For `O=c1c(Oc2ccc(OC(F)(F)F)cc2)c(Cl)cnn1C1c2ccccc2-c2ccccc21`, the IC50 was > 20 µM (inactive).

On to `COc1ccc(Oc2c(Cl)cnn(-c3ccc(C)cc3C)c2=O)cc1`, for which the 50% inhibitory concentration (IC50) is 8.91 µM. Turning to `COc1ccc(Oc2c(Cl)cnn(Cc3ccc(C)c(C)c3)c2=O)cc1`, the IC50 was 5.1 µM.

Turning to `CCc1cccc(-n2ncc(Cl)c(Oc3ccc(OC)cc3)c2=O)c1`, the IC50 was 2.31 µM. On to `COc1ccc(Oc2c(Cl)cnn(C(c3ccccc3)c3cccc4ccccc34)c2=O)cc1` (centres undefined), for which the IC50 is > 20 µM (inactive). As for `COc1ccc(Oc2c(Cl)cnn(Cc3cc(Cl)ccc3Cl)c2=O)cc1`, the half-inhibitory concentration (IC50) is 4.29 µM. Still for that read-out and setting: for `COc1ccc(Oc2c(/C=N\O)cnn(Cc3cccc4ccccc34)c2=O)cc1` the value was “inactive”; for `Cc1cc(C)cc(-n2nc(C#N)c(=O)[nH]c2=O)c1`, > 20 µM (inactive). The same measure, in the same setting: for `O=c1c(Oc2ccc(OC(F)(F)F)cc2)c(Cl)cnn1Cc1cccc2ccccc12` the value was “inactive”. The same measure, in the same setting: then `CCCCCc1ccc(-n2ncc(Cl)c(Oc3ccc(OC)cc3)c2=O)cc1`, with 9.78 µM. In the case of `Cc1ccc(CN2CCCCC2C(=O)N2CCN(c3ccc([N+](=O)[O-])cc3)CC2)cc1C` (centres undefined), the half-inhibitory concentration (IC50) was 3.3 µM.

Turning to `COc1ccc(Oc2c(Cl)c(-c3ccc(C(F)(F)F)cc3)nn(Cc3ccccc3C)c2=O)cc1`, the IC50 result was “inactive”. As for `COc1ccc(Oc2c(Cl)cnn(-c3cccc(Br)c3)c2=O)cc1`, the IC50 is 2.92 µM. Same read-out and setting: for `COc1ccc(Oc2c(Cl)cnn(-c3ccc(F)cc3)c2=O)cc1` the value was 7.84 µM; for `COc1ccc(Oc2c(Cl)cnn(C(CCl)c3cccc4ccccc34)c2=O)cc1` (centres undefined), > 20 µM (inactive). Same read-out and setting: for `COc1ccc(Oc2c(Cl)cnn(Cc3c(OC)ccc4ccccc34)c2=O)cc1` the value was 6.18 µM; for `COc1ccc(Oc2c(Cl)cnn(Cc3c(Cl)cccc3Cl)c2=O)cc1`, 7.65 µM; for `COc1ccc(Oc2c(Cl)cnn(C(CO)c3cccc4ccccc34)c2=O)cc1` (centres undefined), 9.05 µM. The same measure, in the same setting: then `COc1ccc(Oc2c(Cl)cnn(Cc3ccc(C(C)C)cc3)c2=O)cc1`, with > 20 µM (inactive); and `Cc1ccc(-n2ncc(Cl)c(Oc3ccc(O)cc3)c2=O)cc1`, with > 20 µM (inactive). For `CCOc1ccc(Oc2c(Cl)cnn(-c3cc(C)cc(C)c3)c2=O)cc1`, the IC50 was 2.41 µM. The same measure, in the same setting: for `COc1ccc(Oc2c(Cl)cnn(C3=Nc4cc(Cl)ccc4Oc4ccccc43)c2=O)cc1` the value was 1.11 µM; for `COc1ccc(Oc2c(C#N)cnn(Cc3ccccc3C)c2=O)cc1`, > 20 µM (inactive). Same read-out and setting: for `COc1ccc(Oc2c(Cl)cnn(C(C)c3cccc4ccccc34)c2=O)cc1` (centres undefined) the value was 8.69 µM.

Take `COc1ccc(Oc2c(Cl)c(-c3ccccc3)nn(Cc3ccccc3C)c2=O)cc1`: the IC50 was 8.7 µM.

Regarding `Cc1cc(C)cc(-n2ncc(Cl)c(Oc3ccc(CO)cc3)c2=O)c1`, the IC50 was 2.25 µM.

Turning to `CCCCCCCn1ncc(Cl)c(Oc2ccc(OC)cc2)c1=O`, the IC50 entry is “inactive”. Turning to `O=c1c(Oc2ccc(Oc3ccccc3)cc2)c(Cl)cnn1Cc1cccc2ccccc12`, the IC50 is > 20 µM (inactive). On the same count and under the same terms, for `COc1ccc(Oc2c(Cl)c(-c3ccc(OC)cc3)nn(Cc3ccccc3C)c2=O)cc1` the value was > 20 µM (inactive); for `COc1ccc(Oc2c(Cl)cnn(CC3CCCC3)c2=O)cc1`, “inactive”; for `COc1ccc(Oc2c(Cl)cnn(CCc3cccc4ccccc34)c2=O)cc1`, “inactive”. The same measure, in the same setting: for `O=C(C1CCCN1Cc1ccc(Cl)c(Cl)c1)N1CCN(c2ccc([N+](=O)[O-])cc2)CC1` (centres undefined) the value was 2.13 µM. `COc1ccc(Oc2c(Cl)cnn(CC3CCC3)c2=O)cc1`: the inhibition entry (at 20 µM (top of the series)) is “inactive”. Regarding `COc1ccc(Oc2c(Cl)cnn(Cc3cccc(C(F)(F)F)c3)c2=O)cc1`, the concentration for half-maximal inhibition (IC50) is 4.7 µM. Still for that read-out and setting: for `COc1ccc(Oc2c(Cl)cnn(Cc3ccc(F)c4ccccc34)c2=O)cc1` the value was 2.49 µM.

Consider `COc1ccc(Oc2c(OC)nn(-c3cccc(C)c3)c(=O)c2Oc2ccc(OC)cc2)cc1`, for which the IC50 entry is “inactive”. On the same count and under the same terms, then `COCc1ccc(Oc2c(Cl)cnn(Cc3cccc4ccccc34)c2=O)cc1`, with > 20 µM (inactive); and `COc1ccc(Oc2c(Cl)cnn(-c3ccc(Cl)cc3)c2=O)cc1`, with “inactive”. The same measure, in the same setting: then `COc1ccc(Oc2c(-c3ccsc3)c(-c3ccsc3)nn(Cc3ccccc3C)c2=O)cc1`, with > 20 µM (inactive); and `O=c1c(Oc2ccc3occc3c2)c(Cl)cnn1Cc1cccc2ccccc12`, with > 20 µM (inactive). Same read-out and setting: for `COc1ccc(Oc2c(-c3ccc(C)cc3)c(-c3ccc(C)cc3)nn(Cc3ccccc3C)c2=O)cc1` the value was > 20 µM (inactive); for `COc1ccc(Oc2c(Cl)cnn(Cc3ccc(C4CCCCC4)c4ccccc34)c2=O)cc1`, > 20 µM (inactive). In the case of `COc1cccc(Oc2c(Cl)cnn(Cc3cccc4ccccc34)c2=O)c1`, the concentration for half-maximal inhibition (IC50) is 8.9 µM.
